# PubChem BioAssay (NCI)
#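 Results reflect a 48-hour exposure of cells in 96-well plates to compound at five concentrations. The concentration for full growth arrest is given as TGI.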
# What was measured:
# Experiment in all cases: DTP human tumour cell line panel, 48 h
# HOP-62 NSCLC = tested on: HOP-62 NSCLC
# MDA-N = tested on: MDA-N
# EKVX NSCLC = tested on: EKVX NSCLC
# BT-549 breast = tested on: BT-549 breast
# MOLT-4 leukemia = tested on: MOLT-4 leukemia
# A498 renal = tested on: A498 renal
# MCF7 breast = tested on: MCF7 breast
# NCI-H460 lung = tested on: NCI-H460 lung
# NCI/ADR-RES ovarian = tested on: NCI/ADR-RES ovarian
# SK-OV-3 ovarian = tested on: SK-OV-3 ovarian
# U251 CNS = tested on: U251 CNS
# HL-60(TB) leukemia = tested on: HL-60(TB) leukemia
# NCI-H226 lung = tested on: NCI-H226 lung
# MDA-MB-435 = tested on: MDA-MB-435
# 786-0 renal = tested on: 786-0 renal
# UACC-62 melanoma = tested on: UACC-62 melanoma
# IGROV1 ovarian = tested on: IGROV1 ovarian
# MDA-MB-231 breast = tested on: MDA-MB-231 breast
# NCI-H23 lung = tested on: NCI-H23 lung
# SK-MEL-5 melanoma = tested on: SK-MEL-5 melanoma
# OVCAR-3 ovarian = tested on: OVCAR-3 ovarian
# DU-145 prostate = tested on: DU-145 prostate
# HCT-15 colon = tested on: HCT-15 colon
# SF-539 CNS = tested on: SF-539 CNS
# SNB-75 CNS = tested on: SNB-75 CNS
# SNB-19 CNS = tested on: SNB-19 CNS
# SR leukemia = tested on: SR leukemia
# CCRF-CEM leukemia = tested on: CCRF-CEM leukemia
# RXF 393 renal = tested on: RXF 393 renal
# KM12 colon = tested on: KM12 colon
# CAKI-1 renal = tested on: CAKI-1 renal
# HCC-2998 colon = tested on: HCC-2998 colon
# HS 578T breast = tested on: HS 578T breast
# SW-620 colon = tested on: SW-620 colon
# OVCAR-5 ovarian = tested on: OVCAR-5 ovarian
# SK-MEL-2 melanoma = tested on: SK-MEL-2 melanoma
# LOX IMVI melanoma = tested on: LOX IMVI melanoma
# OVCAR-4 ovarian = tested on: OVCAR-4 ovarian
# PC-3 prostate = tested on: PC-3 prostate
# K-562 leukemia = tested on: K-562 leukemia
# NCI-H522 lung = tested on: NCI-H522 lung
# SN12C renal = tested on: SN12C renal
# HCT-116 colon = tested on: HCT-116 colon
# HT29 colon = tested on: HT29 colon
# SK-MEL-28 melanoma = tested on: SK-MEL-28 melanoma
# SF-295 CNS = tested on: SF-295 CNS
# RPMI-8226 leukemia = tested on: RPMI-8226 leukemia
# OVCAR-8 ovarian = tested on: OVCAR-8 ovarian
# M14 melanoma = tested on: M14 melanoma
# HOP-92 NSCLC = tested on: HOP-92 NSCLC
# A549 NSCLC = tested on: A549 NSCLC
# UACC-257 melanoma = tested on: UACC-257 melanoma
# UO-31 renal = tested on: UO-31 renal
# T-47D breast = tested on: T-47D breast
# SF-268 CNS = tested on: SF-268 CNS
# COLO 205 colon = tested on: COLO 205 colon
# TK-10 renal = tested on: TK-10 renal
# ACHN renal = tested on: ACHN renal
# MALME-3M melanoma = tested on: MALME-3M melanoma
# DMS 273 small cell lung = tested on: DMS 273 small cell lung
# KM20L2 colon = tested on: KM20L2 colon
# M19-MEL melanoma = tested on: M19-MEL melanoma
# LXFL 529 NSCLC = tested on: LXFL 529 NSCLC
# DLD-1 colon = tested on: DLD-1 colon
# HOP-18 NSCLC = tested on: HOP-18 NSCLC
smiles,measurement,setting,value
O=c1nc(N2CCNCC2)oc2cc(Cl)oc(=O)c12,TGI,HOP-62 NSCLC,14 µM
same,TGI,MDA-N,9.06 µM
same,TGI,EKVX NSCLC,19.4 µM
same,TGI,BT-549 breast,6.26 µM
same,TGI,MOLT-4 leukemia,7.37 µM
same,TGI,A498 renal,37.9 µM
same,TGI,MCF7 breast,17.8 µM
same,TGI,NCI-H460 lung,22.4 µM
same,TGI,NCI/ADR-RES ovarian,25.8 µM
same,TGI,SK-OV-3 ovarian,33.2 µM
same,TGI,U251 CNS,16 µM
same,TGI,HL-60(TB) leukemia,8.47 µM
same,TGI,NCI-H226 lung,37.9 µM
same,TGI,MDA-MB-435,18.5 µM
same,TGI,786-0 renal,8.66 µM
same,TGI,UACC-62 melanoma,25.2 µM
same,TGI,IGROV1 ovarian,16.6 µM
same,TGI,MDA-MB-231 breast,35.7 µM
same,TGI,NCI-H23 lung,27 µM
same,TGI,SK-MEL-5 melanoma,19 µM
same,TGI,OVCAR-3 ovarian,15.2 µM
same,TGI,DU-145 prostate,21.8 µM
same,TGI,HCT-15 colon,15 µM
same,TGI,SF-539 CNS,11.8 µM
same,TGI,SNB-75 CNS,17.4 µM
same,TGI,SNB-19 CNS,36.7 µM
same,TGI,SR leukemia,4.41 µM
same,TGI,CCRF-CEM leukemia,47.8 µM
same,TGI,RXF 393 renal,24.8 µM
same,TGI,KM12 colon,15.5 µM
same,TGI,CAKI-1 renal,9.49 µM
same,TGI,HCC-2998 colon,25.1 µM
same,TGI,HS 578T breast,5.9 µM
same,TGI,SW-620 colon,21.1 µM
same,TGI,OVCAR-5 ovarian,30 µM
same,TGI,SK-MEL-2 melanoma,29.1 µM
same,TGI,LOX IMVI melanoma,5.89 µM
same,TGI,OVCAR-4 ovarian,21.6 µM
same,TGI,PC-3 prostate,19.9 µM
same,TGI,K-562 leukemia,> 27.4 µM
same,TGI,NCI-H522 lung,5.9 µM
same,TGI,SN12C renal,33.1 µM
same,TGI,HCT-116 colon,7.53 µM
same,TGI,HT29 colon,12.9 µM
same,TGI,SK-MEL-28 melanoma,15.8 µM
same,TGI,SF-295 CNS,20.9 µM
same,TGI,RPMI-8226 leukemia,5.62 µM
same,TGI,OVCAR-8 ovarian,5.67 µM
same,TGI,M14 melanoma,7.94 µM
same,TGI,HOP-92 NSCLC,15.6 µM
same,TGI,A549 NSCLC,20.2 µM
same,TGI,UACC-257 melanoma,27.7 µM
same,TGI,UO-31 renal,23 µM
same,TGI,T-47D breast,> 21.7 µM
same,TGI,SF-268 CNS,15.9 µM
same,TGI,COLO 205 colon,19 µM
same,TGI,TK-10 renal,23.9 µM
same,TGI,ACHN renal,23.5 µM
same,TGI,MALME-3M melanoma,14.5 µM
COc1ccc(OC)c(/C=C(/C#N)c2ccccc2)c1,TGI,HOP-62 NSCLC,> 100 µM
same,TGI,EKVX NSCLC,> 100 µM
same,TGI,MOLT-4 leukemia,57.7 µM
same,TGI,A498 renal,83.8 µM
same,TGI,NCI-H460 lung,> 100 µM
same,TGI,SK-OV-3 ovarian,> 100 µM
same,TGI,U251 CNS,> 100 µM
same,TGI,HL-60(TB) leukemia,19.6 µM
same,TGI,DMS 273 small cell lung,24.5 µM
same,TGI,KM20L2 colon,> 100 µM
same,TGI,NCI-H226 lung,> 100 µM
same,TGI,786-0 renal,> 100 µM
same,TGI,UACC-62 melanoma,35.8 µM
same,TGI,IGROV1 ovarian,> 100 µM
same,TGI,NCI-H23 lung,> 100 µM
same,TGI,SK-MEL-5 melanoma,94.5 µM
same,TGI,OVCAR-3 ovarian,88.2 µM
same,TGI,HCT-15 colon,> 100 µM
same,TGI,SF-539 CNS,> 100 µM
same,TGI,SNB-75 CNS,32.8 µM
same,TGI,SNB-19 CNS,> 100 µM
same,TGI,CCRF-CEM leukemia,62.1 µM
same,TGI,M19-MEL melanoma,> 100 µM
same,TGI,RXF 393 renal,38.7 µM
same,TGI,KM12 colon,> 100 µM
same,TGI,CAKI-1 renal,> 100 µM
same,TGI,LXFL 529 NSCLC,> 100 µM
same,TGI,SW-620 colon,> 100 µM
same,TGI,OVCAR-5 ovarian,> 100 µM
same,TGI,SK-MEL-2 melanoma,54.7 µM
same,TGI,LOX IMVI melanoma,> 100 µM
same,TGI,OVCAR-4 ovarian,81.5 µM
same,TGI,K-562 leukemia,13.8 µM
same,TGI,NCI-H522 lung,45.5 µM
same,TGI,SN12C renal,> 100 µM
same,TGI,HCT-116 colon,> 100 µM
same,TGI,HT29 colon,> 100 µM
same,TGI,DLD-1 colon,> 100 µM
same,TGI,SK-MEL-28 melanoma,> 100 µM
same,TGI,SF-295 CNS,> 100 µM
same,TGI,RPMI-8226 leukemia,60.6 µM
same,TGI,OVCAR-8 ovarian,> 100 µM
same,TGI,M14 melanoma,> 100 µM
same,TGI,HOP-92 NSCLC,70.2 µM
same,TGI,A549 NSCLC,> 100 µM
same,TGI,SF-268 CNS,> 100 µM
same,TGI,COLO 205 colon,> 100 µM
same,TGI,TK-10 renal,> 100 µM
same,TGI,ACHN renal,> 100 µM
same,TGI,HOP-18 NSCLC,> 100 µM
same,TGI,MALME-3M melanoma,> 100 µM
CCOC(=O)C(CCN1CCC2(CC1)C(=O)N(C)CN2c1ccccc1)C(=O)OCC,TGI,HOP-62 NSCLC,> 100 µM
same,TGI,MDA-N,> 100 µM
same,TGI,EKVX NSCLC,> 100 µM
same,TGI,BT-549 breast,> 100 µM
same,TGI,MOLT-4 leukemia,> 100 µM
same,TGI,A498 renal,> 100 µM
same,TGI,MCF7 breast,> 100 µM
same,TGI,NCI-H460 lung,> 100 µM
same,TGI,NCI/ADR-RES ovarian,> 100 µM
same,TGI,SK-OV-3 ovarian,> 100 µM
same,TGI,U251 CNS,> 100 µM
same,TGI,HL-60(TB) leukemia,> 100 µM
same,TGI,NCI-H226 lung,> 100 µM
same,TGI,MDA-MB-435,> 100 µM
same,TGI,786-0 renal,> 100 µM
same,TGI,UACC-62 melanoma,> 100 µM
same,TGI,IGROV1 ovarian,> 100 µM
same,TGI,MDA-MB-231 breast,> 100 µM
same,TGI,NCI-H23 lung,> 100 µM
same,TGI,SK-MEL-5 melanoma,> 100 µM
same,TGI,OVCAR-3 ovarian,> 100 µM
same,TGI,DU-145 prostate,> 100 µM
same,TGI,HCT-15 colon,> 100 µM
same,TGI,SF-539 CNS,> 100 µM
same,TGI,SNB-75 CNS,> 100 µM
same,TGI,SNB-19 CNS,> 100 µM
same,TGI,SR leukemia,> 100 µM
same,TGI,CCRF-CEM leukemia,> 100 µM
same,TGI,RXF 393 renal,> 100 µM
same,TGI,KM12 colon,> 100 µM
same,TGI,CAKI-1 renal,> 100 µM
same,TGI,HCC-2998 colon,> 100 µM
same,TGI,HS 578T breast,> 100 µM
same,TGI,SW-620 colon,> 100 µM
same,TGI,OVCAR-5 ovarian,> 100 µM
same,TGI,SK-MEL-2 melanoma,> 100 µM
same,TGI,LOX IMVI melanoma,> 100 µM
same,TGI,OVCAR-4 ovarian,> 100 µM
same,TGI,PC-3 prostate,> 100 µM
same,TGI,K-562 leukemia,> 100 µM
same,TGI,NCI-H522 lung,> 100 µM
same,TGI,SN12C renal,> 100 µM
same,TGI,HCT-116 colon,> 100 µM
same,TGI,HT29 colon,> 100 µM
same,TGI,SK-MEL-28 melanoma,> 100 µM
same,TGI,SF-295 CNS,> 100 µM
same,TGI,RPMI-8226 leukemia,> 100 µM
same,TGI,OVCAR-8 ovarian,> 100 µM
same,TGI,M14 melanoma,> 100 µM
same,TGI,HOP-92 NSCLC,> 100 µM
same,TGI,A549 NSCLC,> 100 µM
same,TGI,UACC-257 melanoma,> 100 µM
same,TGI,UO-31 renal,> 100 µM
same,TGI,T-47D breast,> 100 µM
same,TGI,SF-268 CNS,> 100 µM
same,TGI,COLO 205 colon,> 100 µM
same,TGI,TK-10 renal,> 100 µM
same,TGI,ACHN renal,> 100 µM
same,TGI,MALME-3M melanoma,> 100 µM
